Entries after “also recorded” stand apart in the source; their conditions may differ. Where two headings read alike, the source gives them in different places.
Assays:
[1] = tested on: COX-2 along with p450 aromatase; conditions: 3.75 mg, for 1 month; eutopic endometria; cited from earlier work
[2] = tested on: estrogen receptor; conditions: treatment of endometriosis in women; cited from earlier work
[3] = tested on: endometriotic lesions; conditions: nude mice model; cited from earlier work
[4] = tested on: human endometriotic epithelial cells 12Z; test: Cell viability assay (WST-1); type: cell-based; conditions: 12Z cells; AH6809 75 μM, AH23848 50 μM, alone or combined; vs control
Method: (§1) Cell Viability Assay: The 12Z and 22B cells (1.25×10^4 cells/well) were cultured in DMEM/F12 with 10% FBS in 96-well plates and treated as described previously. At the end of the experiments the cell viability (metabolic activity) was determined using a cell proliferation assay kit WST-1 according to the manufacturer's (Roche Applied Sciences) instructions. Metabolic activity recorded in control cells was considered as 100%. Data were expressed as mean±SEM of three independent experiments conducted in triplicate.

[5] = tested on: human endometriotic stromal cells 22B; test: Cell viability assay (WST-1); type: cell-based; conditions: 22B cells; AH6809 75 μM, AH23848 50 μM, alone or combined; vs control
Method: as §1

[6] = tested on: human endometriotic epithelial cells 12Z; test: Cell proliferation assay (Coulter counter); type: cell-based; conditions: 12Z cells; 0-200 concentration series
Method: (§2) EP2/EP4 small interfering RNA (siRNA): 12Z and 22B cells (3.0×10^5/well) were cultured in antibiotic-free DMEM/F12 with 10% FBS in six-well tissue culture plates. At 70-80% confluency, cells were used for EP2, EP4 or EP2/EP4 knock-down experiments using SMART-pool siRNA duplex delivered by DharmaFect-1 as described previously (11) and per manufacturer's instructions (Dharmacon Inc, Lafayette, Colo.). As an internal control, MOCK siRNA was used. According to the manufacturer's instructions, SMARTpool siRNA were consisted of at least four individual siRNA duplexes targeted against a specific gene and designed using a bioinformatics technology known as SMARTselection. […] The inventors used SMARTpool siRNA in order to use more than one siRNA duplex from different regions of the gene of interest to avoid non-specific indirect effects of single siRNA duplex to a single region of the target gene. Briefly, siRNA duplexes (100 nM/well) and DharmaFect-1 (3 μl/well) were diluted in 50 μl antibiotic and serum-free DMEM/F12 medium separately and mixed gently and incubated for 5 min at room temperature. Afterwards, EP2, EP4 or EP2/EP4 siRNA and DharmaFect-1 were mixed (total volume 100 μl) and incubated at room temperature for 20 min. Then, 100 μl siRNA: DharmaFect-1 complex was diluted with 2 ml antibiotic-free media with 10% FBS and added to the well. After 24 h, the medium was replaced with fresh DMEM/F12 with 10% FBS and incubated for 24 h. Fluorescence labeled siGLO RISC-free siRNA was transfected separately and transfection efficiency was estimated using a fluorescence microscope. Transfection efficiency more than 80% was considered as optimal conditions for further experiments. Efficiency of siRNA on silencing of EP2 and EP4 genes and proteins was assessed by RT-PCR and western blot, respectively 72 h post-transfection knock-down efficiency was 70-80% in both 12Z and 22B cells.
(§3) Cell Proliferation Assay: The 12Z and 22B cells (1×10^5/well) were cultured in DMEM/F12 with 10% FBS in six-well plates. At 70%-80% confluency the cells were cultured in DMEM/F12 with 2% dextran charcoal-treated FBS and treated with inhibitors for EP1 (SC19220; […]), EP2 (AH6809; […]), EP4 (AH23848; […]), or a combination of EP2 (AH6809; […]) and EP4 (AH23848; […]) for 36 hours. The concentrations for each inhibitor was determined by dose-response studies using […] and an optimal concentration was selected based on its effects on proliferation of human endometriotic cells (FIGS. 6A-6B). These inhibitors competitively bind with respective receptors and inhibit their functions (40-42). For the siRNA study, 24 hours after transfection of siRNA the medium was replaced and the cells were cultured in 2% dextran charcoal-treated FBS, which was considered as time 0 hour, and cell proliferation was estimated at 36 hours. The number of cells was counted using a Coulter counter (11) and considered as 100% present in control. Data were expressed as mean±SEM of three independent studies conducted in duplicate.

[7] = tested on: human endometriotic stromal cells 22B; test: Cell proliferation assay (Coulter counter); type: cell-based; conditions: 22B cells; 0-200 concentration series
Method: as §2, §3

[8] = tested on: human endometriotic epithelial cells 12Z; test: TUNEL apoptosis assay (flow cytometry, fluorescence microscopy); type: cell-based; conditions: 12Z cells, 24 h; for Induced apoptosis (TUNEL, flow cytometry): AH6809 75 μM, AH23848 50 μM, alone or combined
Method: (§4) These well-characterized 12Z and 22B cells were cultured in DMEM/F12 without special steroid treatment containing 10% fetal bovine serum (FBS) and penicillin (100 U/ml), streptomycin (100 μg/ml) and amphotericin-B 2.5 μg/ml in a humidified 5% CO2 and 95% air at 37° C. as we described previously (11, 39). At 70-80% confluency the cells were cultured in DMEM/F12 with 2% dextran-charcoal-treated fetal bovine serum (DC-FBS) and treated with EP inhibitors (EP-I) for EP1 (SC19220-100 100 μM), EP2 (AH6809-75 μM) and/or EP4 (AH23848-50 μM) for 24 h.
as §2
(§5) Terminal deoxynucleotide transferase dUTP nick end labeling (TUNEL) assay: Non-adherent and adherent cells were harvested, mixed together, and resuspended at the concentrations of 1×10^6 cells/ml. Nicks in the DNA were determined by terminal deoxynucleotidyl transferase (TdT) and 5-bromo-2′-deoxyuridine 5′-triphosphate (BrdUTP) labeling using APO-BrdU TUNEL Assay Kit. Detection of BrdU incorporation at DNA break sites was achieved through Alexa Fluor 488 dye-labeled anti-BrdU antibody. The staining procedures were performed as recommended by manufacturers. Numbers of apoptotic cells were analyzed by a flowcytometer (FACSCaliber, Becton Dickinson, San Jose, Calif.) using Cell Quest software. In addition, the presence of TUNEL labeled DNA fragments were determined by fluorescence microscopy. Digital images were captured using a Zeiss Axioplan 2 Research Microscope with an Axiocam HR digital camera.

[9] = tested on: human endometriotic stromal cells 22B; test: as above; type: cell-based; conditions: 22B cells, 24 h; for Induced apoptosis (TUNEL, flow cytometry): AH6809 75 μM, AH23848 50 μM, alone or combined
Method: as §4, §2, §5

[10] = tested on: endometriotic implant; conditions: hamster model; through caspase-3 dependent apoptosis; cited from earlier work
[11] = tested on: human immortalized endometriotic epithelial cells 12Z and stromal cells 22B; conditions: associated with decreased PGE2 production; cited from earlier work
[12] = Cell viability assay (WST-1); type: cell-based, human; conditions: human, AH6809 75 μM, AH23848 50 μM, alone or combined, vs control, read-out: Decrease of cell viability
Method: as §1

[13] = 25 mg/d for 6 months, women with endometriosis; cited from earlier work

In the case of `CCNC(=O)[C@@H]1CCCN1C(=O)[C@H](CCCNC(=N)N)NC(=O)[C@H](CC(C)C)NC(=O)[C@@H](CC(C)C)NC(=O)[C@H](Cc1ccc(O)cc1)NC(=O)[C@H](CO)NC(=O)[C@H](Cc1c[nH]c2ccccc12)NC(=O)[C@H](Cc1c[nH]cn1)NC(=O)[C@@H]1CCC(=O)N1` [leuprolide acetate], the “Expression of COX-2 and p450 aromatase” value [1] is listed as “decreased expression of COX-2 along with p450 aromatase”.

For `O=C(c1ccc(OCCN2CCCCC2)cc1)c1c(-c2ccc(O)cc2)sc2cc(O)ccc12` [raloxifene], the “Outcome of clinical trial” value [2] is listed as “discontinued due to unfavorable outcomes”.

For `CS(=O)(=O)Nc1ccc([N+](=O)[O-])cc1Oc1ccccc1` [nimesulide], the “Number and size of endometriotic lesions” value [3] is listed as “failed to decrease number and size of endometriotic lesions”.

For `O=C(O)CC/C=C\CC[C@H]1[C@H](N2CCOCC2)C(=O)C[C@H]1OCc1ccc(-c2ccccc2)cc1` (relative stereo) [AH23848, (4Z)-7-[(rel-1S,2S,5R)-5-((1,1′-Biphenyl-4-yl)methoxy)-2-(4-morpholinyl)-3-oxocyclopentyl]-4-heptenoic acid], the “Decrease of cell viability” value [4] was roughly 55%, the “Decrease of cell viability” value [5] was roughly 45% and the “Proliferation, dose response experiment” value [6] was “decreased (P<0.05) proliferation”. For the same molecule, the “Proliferation, dose response experiment” value [7] was “decreased (P<0.05) proliferation”, the “Induced apoptosis (TUNEL, flow cytometry)” value (“Induced apoptosis” below) [8] was roughly 55% and the “Induced apoptosis” value [9] was roughly 45%.

In the case of `CS(=O)(=O)Nc1ccc([N+](=O)[O-])cc1OC1CCCCC1` [NS-398], the “Regression of endometriotic implant” value [10] is listed as “induced regression of endometriotic implant” and the “Survival, migration and invasion” value [11] is listed as “prevents survival, migration, and invasion; also recorded: prevents survival, migration and invasion”.

In the case of `C[C@]12CC[C@@H]3c4ccc(O)cc4C[C@@H](CCCCCCCCC[S+]([O-])CCCC(F)(F)C(F)(F)F)[C@H]3[C@@H]1CC[C@@H]2O` (some centres unmarked) [fulvestrant], the “Outcome of clinical trial” value [2] is listed as “discontinued due to unfavorable outcomes”.

With `CC(C)Oc1ccc2c(=O)c3cc(C(=O)O)ccc3oc2c1` [AH6809, 6-Isopropoxy-9-oxoxanthene-2-carboxylic acid] the cytotoxicity at 75 μM ([12]; 12Z endometriotic epithelial cells, 12Z cells) was roughly 55%, the cytotoxicity at 75 μM ([12]; 22B endometriotic stromal cells, 22B cells) was roughly 45% and the “Proliferation, dose response experiment” value [6] was “decreased (P<0.05) proliferation”. For the same molecule, the “Proliferation, dose response experiment” value [7] was “decreased (P<0.05) proliferation”, the “Induced apoptosis” value [8] was roughly 55% and the “Induced apoptosis” value [9] was roughly 45%.

In the case of `CC(=O)NNC(=O)N1Cc2ccccc2Oc2ccc(Cl)cc21` [SC19220], the “Proliferation, dose response experiment” value [6] is reported as “did not decrease proliferation”, the “Proliferation, dose response experiment” value [7] is reported as “did not decrease proliferation” and the “Induction of apoptosis (TUNEL)” value ([8]; SC19220 100 μM) is reported as “did not induce apoptosis”. The “Induction of apoptosis (TUNEL)” value ([9]; SC19220 100 μM) was “did not induce apoptosis”.

In the case of `CS(=O)(=O)c1ccc(C2=C(c3ccccc3)C(=O)OC2)cc1` [rofecoxib], the Pelvic pain symptoms [13] is listed as “effectively suppressed the pelvic pain symptoms”.

Reference: patent US20100249125A1, “INHIBITION OF PROSTGLANDIN E2 RECEPTORS FOR THE TREATMENT OF ENDOMETRIOSIS” (THE TEXAS A&M UNIVERSITY SYSTEM, priority 2009, published 2010)
